# Measurements as given in patent publication US12458666B2 (DOUBLE BOND PHARMACEUTICALS AB, priority 2019, dated 2025).
# Read-outs that look alike come from different tables or passages of the source.
# Tests used:
# [1] = Protocol: (§1) The study was planned as an open pilot study without placebo control. The study was performed at the research unit at the department of Medicine-Geriatric, a special heart failure case record with laboratory data was filed before the start of the study, after six weeks and after 3 months (±2 weeks) at the end of study. Adverse reactions and side effects were registered at each visit.
# [2] = for median ferritin level: thirteen patients who took study medication according to protocol for 12 weeks, baseline 42 (32-57.5); for Hemoglobin / hsCRP / Hepcidin / Transferrin / Iron / TSAT (transferrin saturation) / Ferritin: intention to treat, 100 mg tablet orally twice a day; for Hemoglobin: 20 patients, baseline 144; for hsCRP: baseline 2.0; for Hepcidin: baseline 2.5; for Transferrin: baseline 2.6; for Iron: baseline 13.5; for TSAT (transferrin saturation): baseline 20; for Ferritin: baseline 47
# Protocol: Most of these patients were screened during the year 2018 until January 2019 were the target population. […] These 42 patients defined by inclusion and exclusion criteria for participation were called by phone and informed about the study. After having given oral and written consent to participate blood sampling was performed to confirm or reject the presence of non-anemic ID.
# • All patients with a case record diagnosis of HF, both those with preserved EF or reduced EF were potentially eligible, provided there were no contraindications to participate. • The diagnosis of HF was on symptoms and an ECHO verified reduction of cardiac function, systolic and/or diastolic dysfunction. Those with an EF=<40% were classified as HFrEF and those with EF>40% as preserved HF.
# as §1
# Inofer® is an oral product against ID in a form of film-coated tablets. […] The patients are given one tablet ( )twice a day during a period of at least three months.
# 1 tablet was taken in the morning and 1 tablet was taken in the evening at bedtime for at least 3 months. The tablet was not taken with food.
# Blood sampling was performed according to local and current guidelines. Blood was centrifuged, divided into aliquots and stored at minus 80° C. in a safe deposit box, Biobank Västerbotten, until analysis. Hemoglobin, CRP, ferritin, serum iron, TSAT and hepcidin were analyzed before start, at 6 weeks and 3 months after treatment.
# Continuous variables are presented as means ±standard deviation for normally distributed values, median and interquartile range for skewed variables, and numbers and percentages for categorical variables. Due to skewed variables for ferritin and TSAT non-parametric test was used for related or independent data. Data were analysed using IBM SPSS Software version 24 (IBM Corp. Chicago, Illinois, USA).
# [3] = irrespective if iron was given orally or intravenously; cited from earlier work
# [4] = cited from earlier work
# [5] = long-term intravenous therapy; cited from earlier work
# [6] = cited from earlier work; for Ferritin level after treatment: HF, ejection fraction <40% and anaemia
# [7] = percentage of patients exhibiting the symptom in the study
# [8] = after oral iron succinate treatment
compound,measurement,setting,value
"O=C([O-])CCC(=O)[O-].[Fe+2] [iron succinate, ferrous succinate]",patients who stopped study medication because of vomiting or diarrhea,[1]; of 20 patients,Three
same,patients who stopped study medication before EOS,[1]; of 20 patients,four
same,"Breathlessness, %",[1]; [7],90%
same,"Constipation, %",[1]; [7],20%
same,"Diarrhea, %",[1]; [7],5%
same,"Stomic pain, %",[1]; [7],10%
same,"Tiredness, %",[1]; [7],80%
same,increase of ferritin levels in patients with HFpEF compared with HFrEF,[2]; [8],about the same magnitude
same,uptake (levels) in females compared with males,[2]; [8],increased rather equally
same,median ferritin level,[2]; at 6 weeks,83 (61-110.5) μg/L
same,median ferritin level,[2]; at 12 weeks,87 µg/L
same,Hemoglobin,[2]; median at 6 weeks,138 g/L
same,hsCRP,[2]; median at 6 weeks,2.0 mg/L
same,Hepcidin,"[2]; median at 6 weeks, p=0.006",4.8 nmol/L
same,Transferrin,"[2]; median at 6 weeks, p=0.038",2.4 g/L
same,Iron,[2]; median at 6 weeks,16.5 µmol/L
same,TSAT (transferrin saturation),"[2]; median at 6 weeks, p=0.046",27%
same,Ferritin,"[2]; median at 6 weeks, p=0.009",78 µg/L
same,Hemoglobin,[2]; median at 12 weeks,142 g/L
same,hsCRP,[2]; median at 12 weeks,1.9 mg/L
same,Hepcidin,"[2]; median at 12 weeks, p=0.026",4.2 nmol/L
same,Transferrin,"[2]; median at 12 weeks, p=0.009",2.3 g/L
same,Iron,[2]; median at 12 weeks,16.0 µmol/L
same,TSAT (transferrin saturation),"[2]; median at 12 weeks, p=0.043",25%
same,Ferritin,"[2]; median at 12 weeks, p=0.001",85 µg/L
same,TSAT at EOS,"[2]; one patient who stopped study medication after 3.5 weeks, baseline 16",21%
same,ferritin level at EOS,"[2]; one patient who stopped study medication after 3.5 weeks, baseline 198",237 µg/L
same,increase of ferritin level from baseline to EOS,[2]; one patient who took only one tablet per day for 2.5 weeks,38%
same,increase of ferritin level from baseline to EOS,[2]; one patient who took only one tablet per day for 6 weeks,174%
same,increase of ferritin level from baseline to EOS,[2]; one patient who took only one tablet per day for 7.5 weeks,95%
same,uptake compared to other iron compounds,[3],most favourable uptake
iron polysaccharide,uptake in iron deposits,"[4]; high dose oral, 16 weeks, HFrEF",marginal uptake
same,exercise capacity over 16 weeks,"[4]; high dose oral, HFrEF",did not improve exercise capacity
same,TSAT increase,"[4]; oral 150 mg twice daily for 16 weeks, HFrEF (<40%) and iron deficiency, CI −3 to 7, placebo 0, p=0.003",2%
same,Ferritin increase,"[4]; oral 150 mg twice daily for 16 weeks, HFrEF (<40%) and iron deficiency, CI −8 to 38, placebo 1",18 ng/mL
ferric carboxymaltose,symptomatic and morbidity effects in patients with HF,[5],beneficial symptomatic and morbidity effects
O=S(=O)([O-])[O-].[Fe+2] [ferrous sulphate],"increase of TSAT, oral vs. intravenous administration of iron",[6]; oral 200 mg 3 times a day compared with intravenous iron sucrose,less
same,Ferritin level after treatment,"[6]; oral 200 mg 3 times a day, from 115±141",218 ± 189 ng/mL
iron sucrose,Ferritin level after treatment,"[6]; intravenous 200 mg per week for 5 weeks, from 167±149",293 ± 270 ng/mL
